Results reported in paper PMC7932537, “Quantitative profiling of protease specificity” (PLoS Computational Biology, 2021).

Experiments:
MMP-2 = target: T1, MMP-2 (Homo sapiens, UniProt P08253); experiment: K(obs) of individual phage substrates (set of 1369); format: biochemical; conditions: MMP2
T1 sequence (P08253 110-660): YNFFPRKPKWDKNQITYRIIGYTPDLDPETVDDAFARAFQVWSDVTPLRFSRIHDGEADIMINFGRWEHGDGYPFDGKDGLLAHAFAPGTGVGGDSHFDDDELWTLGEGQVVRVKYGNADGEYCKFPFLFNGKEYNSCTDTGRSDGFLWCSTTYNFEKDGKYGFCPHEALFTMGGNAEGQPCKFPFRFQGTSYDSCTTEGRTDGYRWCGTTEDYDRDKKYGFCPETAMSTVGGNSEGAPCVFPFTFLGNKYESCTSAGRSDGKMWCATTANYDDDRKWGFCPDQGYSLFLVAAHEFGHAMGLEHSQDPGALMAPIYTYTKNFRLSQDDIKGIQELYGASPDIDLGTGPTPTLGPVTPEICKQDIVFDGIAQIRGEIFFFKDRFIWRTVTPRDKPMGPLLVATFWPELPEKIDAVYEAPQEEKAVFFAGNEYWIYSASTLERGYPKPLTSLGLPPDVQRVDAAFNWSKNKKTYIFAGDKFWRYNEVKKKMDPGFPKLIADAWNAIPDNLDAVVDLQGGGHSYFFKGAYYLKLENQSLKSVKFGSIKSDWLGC

MMP-9 = MMP-9 (Homo sapiens, UniProt P14780); experiment: as above; format: biochemical; conditions: MMP9, individual phage substrates, set of 1369 peptides
[1] = individual phage substrates, set of 1369 peptides, cleavage position marked by '-' in the sequence
[2] = '-' marks the cleavage position (P1-P1')
[3] = individual phage substrate from the set of 1369 peptides, cleavage position marked by the dash in the sequence
[4] = dash in sequence marks cleavage position

Chain of MMP-9 (P14780 94-707): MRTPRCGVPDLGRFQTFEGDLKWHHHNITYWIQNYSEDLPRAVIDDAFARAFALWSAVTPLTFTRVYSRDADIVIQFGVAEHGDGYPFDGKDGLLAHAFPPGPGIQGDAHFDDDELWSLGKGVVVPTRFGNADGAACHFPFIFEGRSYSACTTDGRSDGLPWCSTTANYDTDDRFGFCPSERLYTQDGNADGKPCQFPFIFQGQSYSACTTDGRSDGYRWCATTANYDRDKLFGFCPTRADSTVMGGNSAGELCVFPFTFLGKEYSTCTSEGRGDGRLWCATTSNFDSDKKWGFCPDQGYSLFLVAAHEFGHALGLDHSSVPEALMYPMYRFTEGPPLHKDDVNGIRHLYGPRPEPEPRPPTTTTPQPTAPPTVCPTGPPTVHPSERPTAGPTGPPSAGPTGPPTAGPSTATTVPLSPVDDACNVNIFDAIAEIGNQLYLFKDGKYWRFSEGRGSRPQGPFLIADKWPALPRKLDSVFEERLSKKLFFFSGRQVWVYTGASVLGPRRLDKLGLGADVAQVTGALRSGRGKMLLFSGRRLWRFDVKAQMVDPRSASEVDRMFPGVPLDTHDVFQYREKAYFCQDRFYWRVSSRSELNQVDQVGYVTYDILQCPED

| Substance | Kobs (MMP-2; [1]) [M⁻¹ s⁻¹] | Kobs (MMP-9; [2]) [M⁻¹ s⁻¹] | Kobs (MMP-2; [3]) [M⁻¹ s⁻¹] | Kobs (MMP-9; [4]) [M⁻¹ s⁻¹] |
| --- | --- | --- | --- | --- |
| RYPVN-MTASG | 6688.74 | 5090.5 | – | – |
| RYPWA-LTASG | 8941.32 | 12792.1 | – | – |
| SAVRA-LTASG | 9740.44 | 7815.03 | – | – |
| SDIRW-LTASG | 7386.83 | 4335.13 | – | – |
| SGAFH-ILGTA | 1030.73 | 5667.28 | – | – |
| SGAFS-LMRTA | 323.705 | 451.441 | – | – |
| SGAGR-LRATA | – | – | 142.481 | 517.582 |
| SGALA-LLDTA | 0 | 619.843 | – | – |
| SGALD-LKRTA | – | – | 0 | 0 |
| SGALG-LLETA | 171.876 | 171.876 | – | – |
| SGALH-LRETA | 201.585 | 201.585 | – | – |
| SGAMN-LTLTA | 0 | 0 | – | – |
| SGANS-LVATA | 1327.88 | 27.918 | – | – |
| SGANY-IRATA | – | – | 1465.65 | 418.952 |
| SGAQA-LTLTA | 171.876 | 113.394 | – | – |
| SGARG-IKLTA | – | – | 0 | 0 |
| SGARN-LMATA | 10866.7 | 12792.1 | – | – |
| SGAVA-LRLTA | 1981.53 | 3438.54 | – | – |
| SGAWN-MRVTA | 292.668 | 3079.62 | – | – |
| SGAYH-LQQTA | 0 | 762.325 | – | – |
| SGAYS-LRVTA | 2157.02 | 5090.5 | – | – |
| SGFSE-LTLTA | 0 | 0 | – | – |
| SGGRN-LTATA | – | – | 12792.1 | 7815.03 |
| SGGSG-LRMWI | 484.315 | 1239.69 | – | – |
| SGHMH-MRSTA | – | – | 0 | 0 |
| SGIES-MYVTA | 0 | 0 | – | – |
| SGINM-LTLTA | 0 | 0 | – | – |

| Substance | Kobs (MMP-2; [1]) [M⁻¹ s⁻¹] | Kobs (MMP-9; [2]) [M⁻¹ s⁻¹] | Kobs (MMP-2; [3]) [M⁻¹ s⁻¹] | Kobs (MMP-9; [4]) [M⁻¹ s⁻¹] |
| --- | --- | --- | --- | --- |
| SGIQT-MKVTA | 0 | 0 | – | – |
| SGIWK-LTATA | 0 | 386.839 | – | – |
| SGIYG-LRNTA | 1981.53 | 2157.02 | – | – |
| SGLAK-LTVTA | 0 | 0 | – | – |
| SGLAR-LSMTA | – | – | 0 | 0 |
| SGLAS-LRLTA | 874.197 | 0 | – | – |
| SGLGE-LRGTA | 12792.1 | 3850.82 | – | – |
| SGLGM-LATTA | 418.952 | 84.609 | – | – |
| SGLLN-MYITA | 0 | 0 | – | – |
| SGLQN-LMLTA | 113.394 | 113.394 | – | – |
| SGLWT-LMATA | 0 | 0 | – | – |
| SGLYG-LTLTA | 762.325 | 201.585 | – | – |
| SGMLS-LVITA | 0 | 0 | – | – |
| SGMSS-LKFTA | 323.705 | 0 | – | – |
| SGNLA-LKQTA | 0 | 0 | – | – |
| SGPAA-LQSTA | – | – | 8321.48 | 6688.74 |
| SGPAG-MHSTA | 12792.1 | 7015.91 | – | – |
| SGPAP-LVLTA | 12792.1 | 6688.74 | – | – |
| SGPHL-LIRTA | 0 | 386.839 | – | – |
| SGPHS-MKLTA | 0 | 323.705 | – | – |
| SGPHW-LNATA | 3741.87 | 10866.7 | – | – |
| SGPIP-IRKTA | 12792.1 | 12792.1 | – | – |
| SGPKQ-LTRTA | 0 | 1465.65 | – | – |
| SGPLA-STVTA | 0 | 3741.87 | – | – |
| SGPLA-VRTTA | 12792.1 | 12792.1 | – | – |
| SGPLG-IFYTA | 12792.1 | 12792.1 | – | – |
| SGPLS-ILNTA | 8941.32 | 12792.1 | – | – |

| Substance | Kobs (MMP-2; [1]) [M⁻¹ s⁻¹] | Kobs (MMP-9; [2]) [M⁻¹ s⁻¹] | Kobs (MMP-2; [3]) [M⁻¹ s⁻¹] | Kobs (MMP-9; [4]) [M⁻¹ s⁻¹] |
| --- | --- | --- | --- | --- |
| SGPLS-LRSTA | 12792.1 | 12792.1 | – | – |
| SGPLS-QSTTA | 1561.44 | 7815.03 | – | – |
| SGPLT-LNSTA | 2476.66 | 10866.7 | – | – |
| SGPMA-LKSTA | – | – | 8941.32 | 8321.48 |
| SGPMG-MRNTA | 5667.28 | 5889.62 | – | – |
| SGPMH-LRSTA | 8321.48 | 10866.7 | – | – |
| SGPMS-LLDTA | – | – | 2996.69 | 8941.32 |
| SGPMS-LRMTA | 7386.83 | 12792.1 | – | – |
| SGPQA-VVKTA | – | – | 1071.29 | 517.582 |
| SGPRS-LSQTA | – | – | 12792.1 | 8941.32 |
| SGPSD-LHATA | 12792.1 | 12792.1 | – | – |
| SGPSN-MLRTA | 5889.62 | 3964.21 | – | – |
| SGPSR-ILMTA | – | – | 1071.29 | 1513.13 |
| SGPSS-LLGTA | 12792.1 | 12792.1 | – | – |
| SGPVS-LRMTA | – | – | 12792.1 | 12792.1 |
| SGPWG-LLETA | 2409.72 | 12792.1 | – | – |
| SGPYN-LRGTA | 12792.1 | 12792.1 | – | – |
| SGSAR-LTLTA | – | – | 0 | 0 |
| SGSFN-LTMTA | 0 | 418.952 | – | – |
| SGSWS-LILTA | 0 | 0 | – | – |
| SGSYP-LTRTA | – | – | 0 | 0 |
| SGTWP-LSGTA | 12792.1 | 8941.32 | – | – |
| SGTWR-LMLTA | – | – | 0 | 27.918 |
| SGVAP-LILTA | 0 | 142.481 | – | – |
| SGVAS-LMGTA | – | – | 12792.1 | 8941.32 |
